How the values were obtained:
[1] = system: IL-6 secretion by astrocytes; assay: IL-6 release caused by NMO-IgG in astrocytes (ELISA); assay type: cell-based, rat; settings: Rattus norvegicus, Astrocyte, 24 h, NMO-IgG 250 μg/mL, read-out: IL-6 inhibition rate, Mean
Experimental: The compound was dissolved in DMSO to prepare a compound stock solution. The compound stock solution was then serially diluted in a gradient using DMSO to prepare a series of 1000× test compound solutions. These 1000× test compound solutions were further diluted at a ratio of 1:100 with cell culture medium to prepare a series of 10× test compound solutions. Finally, according to the experimental well plate loading design, a corresponding volume of 10× solution was added to each well, with two duplicate wells for each drug concentration. In the experiment, the test solution (i.e., 1× solution) had varying final concentrations of compound I, specifically 20, 2.222, 0.247, and 0.027 μM; the concentration of Meprednisone compound (i.e., 1× solution) was 30 μM; the concentration of BAY 11-7082 (i.e., 1× solution) was 5 μM; the final DMSO concentration in each well was 0.1%. DMSO without compound was added to blank control wells, with a final concentration of 0.1%.
1) Extraction and separation of primary astrocytes: A mixed glial cell culture medium was prepared from the cerebral cortex of 1-day-old newborn rats. After euthanizing the newborn rats, they were immersed in alcohol. Their skin was cut, the brains were removed, and the cerebral cortex was isolated. The tissues were then ground to remove the connective tissue, and the mixed glial cells were sieved through a 70 µm cell strainer. These cells were then seeded into a cell culture plate coated with poly-L-lysine. The culture medium was DMEM, containing 10% heat-inactivated fetal bovine serum, 100 U/mL penicillin, and […]. After about 12 days of in vitro culture, the cells reached confluence. Microglia, endothelial cells, and oligodendrocytes were removed from the mixed glial cells by vibratory shaking. […] 2) Culture of astrocytes: The isolated astrocytes were cultured in a 37° C., 5% CO2 incubator. The culture medium was changed every 3 to 4 days. The astrocytes could also be digested using trypsin (0.25%) and then frozen in liquid nitrogen for future use.
Human NMO-IgG was isolated from a sterile-filtered serum pool (AQP4-IgG-positive NMOSD) using a HiTrap Protein G-HP column (GE Healthcare). The serum samples were diluted at a ratio of 1:1 with binding buffer, and after packing the purification column with binding buffer, the serum sample was added. The column was subsequently washed with binding buffer again and the antibodies were eluted according to the instructions. Finally, the antibodies were concentrated on an Amicon Ultra-4 centrifugal filter (millipore) with a 10,000 MW cutoff. The concentrated immunoglobulin was filtered through a 0.22 µm filter. The protein concentration of the concentrate was determined using the BCA method and stored at −80° C. The total IgG extracted from the serum of NMOSD patients was NMO-IgG (containing AQP4-IgG), and the cells were stimulated at a protein concentration of 250 μg/mL during the experiment.
Astrocytes were cultured or revived until day 2 and then seeded into a 24-well plate at a density of 1.5×10^5 cells per well. The test compounds, including compound I, Meprednisone, and BAY11-7082, were pre-incubated with the cells for 30 minutes at the concentrations previously described. Subsequently, in each group, the cells continued to be stimulated with NMO-IgG at a final working concentration of 250 μg/mL for 24 hours to induce astrocyte damage. Normal human Control-IgG (CON-IgG) stimulation at a final working concentration of 250 μg/mL was used as a negative control.
After 24 hours of NMO-IgG stimulation of cells, the supernatant was collected. IL-6 levels were detected using an enzyme-linked immunosorbent assay (ELISA) following the instructions of the IL-6 ELISA kit (R&D Systems, USA, #RD6000B). The absorbance (OD values) of the samples in each group was measured, and the concentration of IL-6 in each experimental group was calculated through standard curve fitting. […]

[2] = system: MOG35-55-induced EAE mouse spinal cord; assay: EAE mouse model, spinal cord H&E and LFB pathological scoring; assay type: in vivo, C57BL/6 mice; settings: day 28
Experimental: For each group consisting of 5 mice, euthanasia was performed followed by cardiac perfusion with saline. Subsequently, an equal volume of 10% formalin was perfused. Spinal cord tissues from the mice were collected, soaked in […], and then sectioned. Hematoxylin & Eosin (H&E) staining and Luxol Fast Blue (LFB) staining were performed, along with pathological scoring.
At the end of the experiment, the spinal cords of mice were collected, with 2 in the normal control group and 5 in each of the remaining groups. The spinal cords were fixed in formalin, followed by paraffin embedding and sectioning. Two sections were taken from each mouse and subjected to H&E and FLB staining for pathological observation. Scoring was done for cell infiltration, lesion areas, and demyelination. […] Specifically, after H&E staining of the mouse spinal cord, cell infiltration (A) and lesion area (B) in the spinal cord sections were counted. After LFB staining, the degree of demyelination (C) in the spinal cord sections was scored. Data were presented as mean±standard error of the mean (mean±SEM). *p<0.05, **p<0.01, ***p<0.001, ****p<0.0001, vs. vehicle control group (Vehicle), one-way ANOVA.

## CN(c1ncnc2[nH]ccc12)[C@@H]1CCc2cc(C#N)nn2C1 [Compound I]
[1]; 0.027 μM
  inhibition at 0.027 µM: 30.4%
[1]; 0.247 μM
  inhibition at 0.247 µM: 54%
[1]; 2.222 μM
  inhibition at 2.222 µM: 94.3%
[1]; 20 μM
  inhibition at 20 µM: ~98.8%
[2]; 10 mg/kg BID
  cell infiltration, lesion area and demyelination compared with Fingolimod: significantly better therapeutic effect than the positive drug Fingolimod group
[2]; all doses (3, 10, 20 mg/kg BID, 20 mg/kg QD)
  damage to the spinal cord caused by EAE modeling: significantly inhibited the damage to the spinal cord
